# Legend:
# xanthine oxidase (XOD) [1] = target: T1, xanthine oxidase (XOD) (Bos taurus, UniProt P80457); test: spectrophotometric uric acid formation assay at […] nm, % inhibition at […]; assay type: biochemical; settings: read-out: % inhibition at 100 μg/mL
# T1 construct: gene XDH
# xanthine oxidase (XOD) [2] = target: T1, xanthine oxidase (XOD); test: spectrophotometric uric acid formation assay at […] nm; reversibility plots; assay type: biochemical
# T1 sequence (P80457 2-1332): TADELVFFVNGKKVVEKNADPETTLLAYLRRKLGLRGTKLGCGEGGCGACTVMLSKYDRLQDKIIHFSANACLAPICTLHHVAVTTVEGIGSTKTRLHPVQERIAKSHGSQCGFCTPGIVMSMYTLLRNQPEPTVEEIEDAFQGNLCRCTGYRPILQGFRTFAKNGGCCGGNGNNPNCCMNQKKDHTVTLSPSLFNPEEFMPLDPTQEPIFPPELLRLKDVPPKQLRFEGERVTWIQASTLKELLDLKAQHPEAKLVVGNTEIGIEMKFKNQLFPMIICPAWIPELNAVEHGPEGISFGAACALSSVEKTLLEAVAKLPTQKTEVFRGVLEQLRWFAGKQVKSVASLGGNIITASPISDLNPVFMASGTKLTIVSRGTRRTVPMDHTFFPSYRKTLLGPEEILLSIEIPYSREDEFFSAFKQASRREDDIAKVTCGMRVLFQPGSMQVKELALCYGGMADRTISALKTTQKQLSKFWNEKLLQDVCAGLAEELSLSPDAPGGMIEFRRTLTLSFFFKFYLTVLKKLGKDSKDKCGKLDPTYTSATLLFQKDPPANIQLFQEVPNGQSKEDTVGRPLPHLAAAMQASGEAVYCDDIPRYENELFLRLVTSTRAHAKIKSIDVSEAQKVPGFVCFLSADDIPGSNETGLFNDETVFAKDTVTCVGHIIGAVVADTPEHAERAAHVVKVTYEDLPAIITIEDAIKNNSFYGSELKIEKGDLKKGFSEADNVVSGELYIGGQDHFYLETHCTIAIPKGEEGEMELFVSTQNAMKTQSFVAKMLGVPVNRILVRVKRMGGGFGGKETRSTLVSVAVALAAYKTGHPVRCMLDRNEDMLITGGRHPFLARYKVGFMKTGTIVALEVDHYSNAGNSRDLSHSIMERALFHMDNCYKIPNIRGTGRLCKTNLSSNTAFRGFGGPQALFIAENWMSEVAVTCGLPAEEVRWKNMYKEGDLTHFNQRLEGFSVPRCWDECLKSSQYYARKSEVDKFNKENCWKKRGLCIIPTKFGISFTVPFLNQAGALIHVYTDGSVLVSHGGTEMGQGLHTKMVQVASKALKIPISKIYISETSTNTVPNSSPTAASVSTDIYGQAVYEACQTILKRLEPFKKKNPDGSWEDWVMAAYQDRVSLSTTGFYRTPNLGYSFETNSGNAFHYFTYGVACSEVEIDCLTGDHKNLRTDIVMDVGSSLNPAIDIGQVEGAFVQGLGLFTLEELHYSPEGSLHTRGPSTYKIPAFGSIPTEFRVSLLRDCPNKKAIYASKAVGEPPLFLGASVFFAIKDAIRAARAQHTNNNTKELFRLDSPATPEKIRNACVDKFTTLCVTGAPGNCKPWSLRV
SMILES,inhibition at 100 µg/mL (xanthine oxidase (XOD) [1]) [%],IC50 (xanthine oxidase (XOD) [2]) [µM]
"C[C@@H]1O[C@@H](O[C@H]2C(=O)c3c(O)cc(O)cc3O[C@@H]2c2ccc(O)c(O)c2)[C@H](O)[C@H](O)[C@H]1O [compound 6, astilbin]",33.2,–
"O=c1c(O)c(-c2ccc(O)c(O)c2)oc2cc(O)cc(O)c12 [compound 3, quercetin]",82.1,–
"O=C(/C=C/c1ccc(O)c(O)c1)O[C@@H]1CC(C(=O)O)=C[C@@H](O)[C@H]1O [compound 1, 5-O-caffeoylshikimic acid]",–,14
